Test results published in US20250205158A1, “BIODEGRADABLE LIPIDS AND FORMULATIONS FOR DELIVERY OF MRNA” (Massachusetts Institute of Technology, priority 2023, published 2025).

How the values were obtained:
mice [1] = test: IFN-γ ELISpot and supernatant cytokines of peptide-stimulated splenocytes after HA mRNA vaccination; assay type: in vivo, BALB/cJ and C57B1/6J mice
Protocol: Further experiments to evaluate the dose-sparing potential of AMG1541 were performed for influenza vaccination.^34,35 The immunogenicity of AMG1541 was compared to the clinical benchmark SM-102 by formulating each into LNPs containing hemagglutinin (HA) (A/Tasmania/503/2020 H3N2) mRNA. BALB/cJ mice were vaccinated with […] of these mRNA LNPs and the quality of humoral and cellular immunity following vaccination was evaluated. Enhancing each component of immunity contributes to improving vaccine protection—humoral immunity provides protection against initial infection while cellular immunity improves the clearance of breakthrough infections. […] Male and female mice vaccinated with AMG1541 had 15.8- and 6.8-fold higher endpoint titers, respectively (FIG. 13C). […] Serum cytokines were examined 6 hours after the boost dose to determine whether the enhanced immunogenicity of AMG1541 also led to increased systemic inflammation (FIGS. 20A-20C). […]
IFN-γ ELISpot. […] Cells were then pelleted, resuspended in PBS+1% BSA, and counted using a countess 3 automated cell counter (ThermoFisher). […]
Luminex. […] The supernatants from the stimulated splenocytes used for the ELISpot assay were analyzed using Eve Technologies' Mouse High Sensitivity 18-Plex Discovery Assay® (MilliporeSigma, Burlington, Massachusetts, USA) according to the manufacturer's protocol. […]

in vivo = conditions: C57BL/6, mouse, im
liver = test: fLuc mRNA LNP protein expression after intravenous injection; assay type: in vivo; conditions: 0.25 mg/kg dose, 6 hrs.
Protocol: Evaluation of the LNPs via intravenous injection. The lipids were initially evaluated for intravenous protein expression by administration of a 0.25 mg/kg dose […] of fLuc mRNA LNPs.

mice [2] = test: tdTomato mRNA LNP expression in muscle and local draining lymph node (flow cytometry, IHC)
[3] = system: Lentiviruses pseudotyped with the B.1.617.2 spike protein; assay type: cell-based; conditions: 293T-ACE2 cells, GFP reporter
[4] = muscle, female BALB/cJ mice, IM

SMILES: CCCCCC/C=C\CCCC(=O)OCC(O)CN1CCN(CC(O)COC(=O)CCC/C=C\CCCCCC)CCN(CC(O)COC(=O)CCC/C=C\CCCCCC)CCN(CC(O)COC(=O)CCC/C=C\CCCCCC)CCN(CC(O)COC(=O)CCC/C=C\CCCCCC)CCN(CC(O)COC(=O)CCC/C=C\CCCCCC)CC1 (stereo not drawn) [AMG1541]
- cytokines in media from splenocytes stimulated with MHC-binding peptides (mice [1]; BALB/cJ mice, HA mRNA, dose=1 μg): significant upregulation of IL-4, and IL-5 in both male and female mice and IL-10 in female mice
- fold more Spot Forming Units (SFU) relative to SM-102 (mice [1]; IFN-γ ELISpot, MHC-I stimulated splenocytes, female C57B1/6J mice): 6.6 fold
- half-life (in vivo): 3 h
- protein expression after intravenous fLuc mRNA LNPs (liver): comparable levels of protein expression to lipid MD-1
- expression in muscle fibers (IHC) (mice [2]; after IM administration): tdTomato was expressed in the muscle fibers
- protein expression in the LDLN relative to SM-102 (mice [2]; female BALB/cJ mice, IM): significantly higher protein expression in APCs
- fold higher tdTomato expression in DCs than SM-102 (mice [2]; [4]): 3.8 fold
- fold higher tdTomato expression in monocytes than SM-102 (mice [2]; [4]): 22 fold
- fold higher infection inhibition IC50 than AMG1041 [3]: approximately 2 fold
